Where a name gives a salt, the structure may show the parent alone. Read-outs that look alike come from different tables or passages of the source.
Molecular target: PAI-1 (Homo sapiens, UniProt P05121)
Assay: biochemical
Details: for inhibition at 20 µM / inhibition at 100 µM / inhibition at 6.25 µM / inhibition at 12.5 µM / inhibition at 25 µM / inhibition at 50 µM: read-out: Degree of inhibition in PAI chromogenic substrate assay
[1] = PAI chromogenic substrate assay, read-out: IC50

Sequence of PAI-1 (P05121 24-402): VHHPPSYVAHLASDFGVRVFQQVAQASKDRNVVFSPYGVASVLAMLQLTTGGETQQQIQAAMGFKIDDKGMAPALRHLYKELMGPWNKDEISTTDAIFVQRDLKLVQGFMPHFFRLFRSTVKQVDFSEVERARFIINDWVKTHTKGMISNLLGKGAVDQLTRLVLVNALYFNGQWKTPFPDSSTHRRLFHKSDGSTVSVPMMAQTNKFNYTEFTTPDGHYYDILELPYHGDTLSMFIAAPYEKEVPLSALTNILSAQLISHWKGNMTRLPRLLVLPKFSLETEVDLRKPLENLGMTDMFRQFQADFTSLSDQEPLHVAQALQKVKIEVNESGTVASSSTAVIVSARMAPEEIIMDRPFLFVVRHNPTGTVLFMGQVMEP
Protocol: In this assay, a compound is incubated with PAI-1 prior to addition to the tPA assay system. Inhibition of PAI-1 results in the production of plasmin from plasminogen. In turn, plasmin cleaves the chromogenic substrate S2251 (Kabi Vitrum) producing pNA (p-nitroaniline) which is detected spectrophotometrically at 405 nm (K. Nilsson et al, Fibrinolysis (1987) 1, 163-168).
Compounds of formula (A) were tested in a PAI chromogenic substrate assay. In the assay (K.Nilsson, Fibrinolysis (1987) 1, 163-168) each compound was incubated with PAI-1 prior to addition to the tPA assay system. […] In turn, the plasmin cleaved the chromogenic substrate S2251 (Kabi-Vitrum) producing pNA (p-nitroaniline) which was detected spectrophotometrically at 405 nm.

SMILES: CN(C)CCCOc1ccc(/C=c2\[nH]c(=O)/c(=C/c3cc([N+](=O)[O-])cc([N+](=O)[O-])c3)[nH]c2=O)cc1 [Compound 5381, (3Z,6Z)-6-(4-(3-Dimethylaminopropoxy)benzylidene)-3-(3,5-dinitrobenzylidene)-2,5-piperazinedione]
- IC50 (IC50, PAI chromogenic substrate assay): 15 µM

SMILES: Cc1ccccc1/C=c1\[nH]c(=O)/c(=C/c2ccc(OCCCN(C)C)cc2)[nH]c1=O [Compound 5186, (3Z,6Z)-6-(4-(3-Dimethylaminopropoxy)benzylidene)-3-(2-methylbenzylidene)-2,5-piperazinedione]
- inhibition at 20 µM (20 μM (third part of Table 1)): 10%
- inhibition at 100 µM (100 μM (third part of Table 1)): 46%

SMILES: CN(C)CCCOc1ccc(/C=c2\[nH]c(=O)/c(=C/c3cccc(C#N)c3)[nH]c2=O)cc1 [Compound 5232, (3Z,6Z)-3-(3-Cyanobenzylidene)-6-(4-(3-dimethylaminopropoxy)benzylidene)-2,5-piperazinedione]
- inhibition at 100 µM (100 μM (third part of Table 1)): 10%

SMILES: CN(C)CCOc1ccc(/C=c2\[nH]c(=O)/c(=C/c3ccc(OCCN(C)C)cc3)[nH]c2=O)cc1 [Compound 1962, (3Z,6Z)-3,6-Di-(4-(2-dimethylaminoethoxy)benzylidene)-2,5-piperazinedione dihydrochloride]
- inhibition at 6.25 µM (6.25 μM): 1%
- inhibition at 12.5 µM (12.5 μM): 1%
- inhibition at 25 µM (25 μM): 1%
- inhibition at 50 µM (50 μM): 2%
- inhibition at 100 µM (100 μM): 2%

SMILES: CN(C)CCOc1ccc(/C=c2\[nH]c(=O)/c(=C/c3c(Cl)cccc3Cl)[nH]c2=O)cc1 [Compound 1980, (3Z,6Z)-3-(2,6-Dichlorobenzylidene)-6-(4-(2-dimethylaminoethoxy)benzylidene)-2,5-piperazinedione]
- Degree of inhibition in PAI chromogenic substrate assay (6.25 μM): 0%
- Degree of inhibition in PAI chromogenic substrate assay (12.5 μM): 13%
- Degree of inhibition in PAI chromogenic substrate assay (25 μM): 51%
- Degree of inhibition in PAI chromogenic substrate assay (50 μM): 41%
- Degree of inhibition in PAI chromogenic substrate assay (100 μM): 66%

SMILES: CN(C)CCOc1ccc(/C=c2\[nH]c(=O)/c(=C/c3ccccc3)[nH]c2=O)cc1 [Compound 1954, (3Z,6Z)-6-Benzylidene-3-(4-(2-dimethylaminoethoxy)benzylidene)-2,5-piperazinedione]
- Degree of inhibition in PAI chromogenic substrate assay (6.25 μM): 37%
- Degree of inhibition in PAI chromogenic substrate assay (12.5 μM): 57%
- Degree of inhibition in PAI chromogenic substrate assay (25 μM): 67%
- Degree of inhibition in PAI chromogenic substrate assay (50 μM): 43%
- Degree of inhibition in PAI chromogenic substrate assay (100 μM): 16%

SMILES: CN(C)CCCOc1ccc(/C=c2\[nH]c(=O)/c(=C/c3ccc(Br)cc3)[nH]c2=O)cc1 [Compound 5360]
- inhibition at 20 µM (20 μM (third part of Table 1)): 59%
- IC50 [1]: 3.5 µM

SMILES: CN(C)CCOc1ccccc1/C=c1\[nH]c(=O)/c(=C/c2ccccc2)[nH]c1=O [Compound 1979, (3Z,6Z)-Benzylidene-3-(2-(2-dimethylaminoethoxy)benzylidene)-2,5-piperazinedione]
- inhibition at 6.25 µM (6.25 μM): 0%
- Degree of inhibition in PAI chromogenic substrate assay (100 μM): 37%

SMILES: CC(=O)Nc1ccccc1/C=c1\[nH]c(=O)/c(=C/c2ccc(OCCCN(C)C)cc2)[nH]c1=O [Compound 5259]
- inhibition at 20 µM (20 μM (third part of Table 1)): 10%

SMILES: CN(C)CCCOc1ccc(/C=c2\[nH]c(=O)/c(=C/c3ccc4c(c3)OCO4)[nH]c2=O)cc1 [Compound 5229, (3Z,6Z)-6-(4-(3-Dimethylaminopropoxy)benzylidene)-3-(3,4-methylenedioxybenzylidene)-2,5-piperazinedione]
- IC50 [1]: 3.7 µM

SMILES: CN(C)CCCOc1ccc(/C=c2\[nH]c(=O)/c(=C/c3cccc(Cl)c3)[nH]c2=O)cc1 [Compound 5240]
- Degree of inhibition in PAI chromogenic substrate assay (20 μM (third part of Table 1), 20 µM): 65%
- Degree of inhibition in PAI chromogenic substrate assay (100 μM (third part of Table 1), 100 µM): 46%
- IC50 [1]: 6.5 µM

SMILES: CN(C)CCCOc1ccc(/C=c2\[nH]c(=O)/c(=C/c3ccc(C(C)(C)C)cc3)[nH]c2=O)cc1 [Compound 5238, (3Z,6Z)-3-(4-(3-Dimethylaminopropoxy)benzylidene)-6-(4-tert-butylbenzylidene)-2,5-piperazinedione]
- inhibition at 20 µM (20 μM (third part of Table 1)): 3%
- inhibition at 100 µM (100 μM (third part of Table 1)): 36%

SMILES: CCCCCCC(=O)Oc1ccc(/C=c2\[nH]c(=O)/c(=C/c3ccc(OC)cc3)[nH]c2=O)cc1 [Compound 1887, (3Z,6Z)-3-(4-Heptanoyloxybenzylidene)-6-(4-methoxybenzylidene)-2,5-piperazinedione]
- inhibition at 6.25 µM (6.25 μM): 0%
- inhibition at 12.5 µM (12.5 μM): 5%
- inhibition at 25 µM (25 μM): 24%
- inhibition at 50 µM (50 μM): 46%
- inhibition at 100 µM (100 μM): 83%

SMILES: CSc1ccc(/C=c2\[nH]c(=O)/c(=C/c3ccc(OCCCN(C)C)cc3)[nH]c2=O)cc1 [Compound 5385, (3Z,6Z)-3-(4-(3-Dimethylaminopropoxy)benzylidene)-6-(4-methylthiobenzylidene)-2,5-piperazinedione]
- IC50 [1]: 2 µM

SMILES: CN(C)CCCN(CCCN(C)C)Cc1ccc(/C=c2\[nH]c(=O)/c(=C/c3ccccc3)[nH]c2=O)cc1 [Compound 1981, (3Z,6Z)-3-Benzylidene-6-(4-bis(3-dimethylaminopropyl)aminomethylbenzylidene)-2,5-piperazinedione]
- Degree of inhibition in PAI chromogenic substrate assay (12.5 μM): 7%
- Degree of inhibition in PAI chromogenic substrate assay (25 μM): 26%
- Degree of inhibition in PAI chromogenic substrate assay (50 μM): 41%
- Degree of inhibition in PAI chromogenic substrate assay (100 μM): 51%

SMILES: COc1ccc(/C=c2\[nH]c(=O)/c(=C/c3ccc(OC(=O)CC(C)(C)C)cc3)[nH]c2=O)cc1 [Compound 1885, (3Z,6Z)-3-(4-(3,3-dimethylbutanoyloxy)benzylidene)-6-(4-methoxybenzylidene)-2,5-piperazinedione]
- inhibition at 6.25 µM (6.25 μM): 0%
- inhibition at 12.5 µM (12.5 μM): 0%
- inhibition at 25 µM (25 μM): 2%
- inhibition at 50 µM (50 μM): 31%
- inhibition at 100 µM (100 μM): 54%

SMILES: CN(C)CCCOc1ccc(/C=c2\[nH]c(=O)/c(=C/c3ccc(C#N)cc3)[nH]c2=O)cc1 [Compound 5245]
- IC50 [1]: 1.8 µM

SMILES: CN(C)CCOc1ccccc1/C=c1\[nH]c(=O)/c(=C/c2ccccc2)[nH]c1=O [Compound 1946, (3Z,6Z)-3-Benzylidene-6-(2-(2-dimethylaminoethoxy)benzylidene)-2,5-piperazinedione]
- Degree of inhibition in PAI chromogenic substrate assay (12.5 μM): 1%
- Degree of inhibition in PAI chromogenic substrate assay (25 μM): 1%
- Degree of inhibition in PAI chromogenic substrate assay (50 μM): 1%
- Degree of inhibition in PAI chromogenic substrate assay (100 μM): 7%

SMILES: CN(C)CCCOc1ccc(/C=c2\[nH]c(=O)/c(=C/c3ccc(C(=O)NCCCCc4ccccc4)cc3)[nH]c2=O)cc1 [Compound 5347, N-(4-Phenylbutyl)-4-((3Z,6Z)-6-(4-(3-Dimethylaminopropoxy)benzylidene)-2,5-dioxo-3-piperazinylidene)methylbenzamide]
- inhibition at 20 µM (20 μM (third part of Table 1)): 39%

SMILES: CN(C)CCOc1ccc(/C=c2\[nH]c(=O)/c(=C/c3ccccc3)[nH]c2=O)c(OCCN(C)C)c1 [Compound 1969]
- inhibition at 6.25 µM (6.25 μM): 2%
- inhibition at 12.5 µM (12.5 μM): 0%
- Degree of inhibition in PAI chromogenic substrate assay (25 μM): 6%
- Degree of inhibition in PAI chromogenic substrate assay (50 μM): 20%
- Degree of inhibition in PAI chromogenic substrate assay (100 μM): 52%

SMILES: CN(C)CCCOc1ccc(/C=c2\[nH]c(=O)/c(=C/c3ccc(N)cc3)[nH]c2=O)cc1 [Compound 5260]
- IC50 [1]: 17 µM

SMILES: CN(C)CCCOc1ccc(/C=c2\[nH]c(=O)/c(=C/c3ccccc3)[nH]c2=O)cc1 [Compound 1852, (3Z,6Z)-6-Benzylidene-3-(4-(3-dimethylaminopropoxy)benzylidene)-2,5-piperazinedione]
- inhibition at 6.25 µM (6.25 μM): 4%
- inhibition at 12.5 µM (12.5 μM): 67%
- inhibition at 25 µM (25 μM): 74%
- inhibition at 50 µM (50 μM): 71%
- inhibition at 100 µM (100 μM): 72%

SMILES: CN(C)CCOCc1ccc(/C=c2\[nH]c(=O)/c(=C/c3ccccc3Br)[nH]c2=O)cc1 [Compound 5070.HCl, (3Z,6Z)-3-(2-Bromobenzylidene)-6-(4-(2-dimethylaminoethoxymethyl)benzylidene)-2,5-piperazinedione]
- inhibition at 20 µM (20 μM (third part of Table 1)): 6%
- inhibition at 50 µM (50 μM (third part of Table 1)): 6%
- inhibition at 100 µM (100 μM (third part of Table 1)): 40%

SMILES: CC(C)(C)CC(=O)Oc1ccc(/C=c2\[nH]c(=O)/c(=C/c3ccccc3)[nH]c2=O)cc1 [Compound 1889, (3Z,6Z)-6-Benzylidene-3-(4-(3,3-dimethylbutanoyloxy)benzylidene)-2,5-piperazinedione]
- inhibition at 6.25 µM (6.25 μM): 0%
- inhibition at 12.5 µM (12.5 μM): 3%
- inhibition at 25 µM (25 μM): 15%
- inhibition at 50 µM (50 μM): 38%
- inhibition at 100 µM (100 μM): 49%

SMILES: CN(C)CCCOc1ccc(/C=c2\[nH]c(=O)/c(=C/c3cccc(OC(F)(F)F)c3)[nH]c2=O)cc1 [Compound 5374, (3Z,6Z)-6-(4-(3-Dimethylaminopropoxy)benzylidene)-3-(3-trifluoromethoxybenzylidene)-2,5-piperazinedione]
- IC50 [1]: 15 µM

SMILES: CN(C)Cc1ccc(/C=c2\[nH]c(=O)/c(=C/c3ccccc3)[nH]c2=O)cc1 [Compound 1913, (3Z,6Z)-3-Benzylidene-6-(4-dimethylaminomethylbenzylidene)-2,5-piperazinedione]
- inhibition at 6.25 µM (6.25 μM): 15%
- inhibition at 12.5 µM (12.5 μM): 14%
- inhibition at 25 µM (25 μM): 19%
- inhibition at 50 µM (50 μM): 54%
- inhibition at 100 µM (100 μM): 71%

SMILES: CN(C)CCOc1cccc(/C=c2\[nH]c(=O)/c(=C/c3cccc(OCCN(C)C)c3)[nH]c2=O)c1 [Compound 1947, (3Z,6Z)-3,6-Di-(3-(2-dimethylaminoethoxy)benzylidene)-2,5-piperazinedione]
- inhibition at 6.25 µM (6.25 μM): 0%
- inhibition at 12.5 µM (12.5 μM): 1%
- inhibition at 25 µM (25 μM): 1%
- inhibition at 50 µM (50 μM): 1%
- inhibition at 100 µM (100 μM): 1%
